No end group written: not given here.
Test system: S. aureus USA300
Experiment: Antimicrobial testing (bactericidal, CFU) against S. aureus USA300
Type: cell-based, Staphylococcus aureus
Settings: for S. aureus USA300 CFU normalized to untreated control (1.00): 3 h, mean of at least three experiments
Method: Fig. 5 Synergistic action of lugdunin and human antimicrobial peptides (AMPs) kills methicillin-resistant S. aureus (MRSA). a, c Logarithmically grown (3 × 10^6) S. aureus were incubated with indicated combinations of lugdunin and human AMPs in phosphate-buffered saline (PBS) containing 0.1% tryptic soy broth (TSB) at 37 °C orbital shaking (white bar, untreated; dark gray bars, AMP treatment; middle gray bars, lugdunin treatment; light gray bars, AMP and lugdunin combination treatment). After 3 h of incubation, several dilutions of the bacterial suspensions were plated onto TSB agar plates and incubated overnight at 37 °C. The next day S. aureus colony-forming units (CFUs) were counted. Each experiment was performed in triplicates. Data represent the percentage of CFU of at least three independent experiments normalized to the untreated control ± s.e.m. Significant differences to control treatments were analyzed by ordinary one-way analysis of variance (ANOVA) followed by Dunnett’s multiple comparisons test (*P < 0.05; **P < 0.01; ***P < 0.001; ****P < 0.0001). b Combination indices (CIs) were calculated using CompuSyn (ComboSyn Inc.) and indicated in median effect plots as a function of the bacteria fractions affected by the combinatorial peptide treatment. CI values of 1 indicate additive effects, whereas values <1 and >1 indicate synergistic and antagonistic effects, respectively. Source data are provided as a Source Data file TEXT PRINTED IN THE PICTURE: (a) DCD-1: S. aureus USA300, Lugdunin μM 0: 1.00 (DCD-1 μM: 0); S. aureus USA300, Lugdunin μM 1: 1.08 (DCD-1 μM: 0); S. aureus USA300, Lugdunin μM 2: 1.11 (DCD-1 μM: 0); S. aureus USA300, Lugdunin μM 3: 0.97 (DCD-1 μM: 0); S. aureus USA300, Lugdunin μM 0: 1.06 (DCD-1 μM: 1); S. aureus USA300, Lugdunin μM 1: 0.91 (DCD-1 μM: 1); S. aureus USA300, Lugdunin μM 2: 0.85 (DCD-1 μM: 1); S. aureus USA300, Lugdunin μM 3: 0.60 (DCD-1 μM: 1); S. aureus USA300, Lugdunin μM 0: 1.19 (DCD-1 μM: 2); S. aureus USA300, Lugdunin μM 1: 0.84 (DCD-1 μM: 2); S. aureus USA300, Lugdunin μM 2: 0.43 (DCD-1 μM: 2); S. aureus USA300, Lugdunin μM 3: 0.21 (DCD-1 μM: 2) | (a) DCD-1L: S. aureus USA300, Lugdunin μM 0: 1.00 (DCD-1L μM: 0); S. aureus USA300, Lugdunin μM 1: 1.08 (DCD-1L μM: 0); S. aureus USA300, Lugdunin μM 2: 1.11 (DCD-1L μM: 0); S. aureus USA300, Lugdunin μM 3: 0.97 (DCD-1L μM: 0); S. aureus USA300, Lugdunin μM 0: 1.13 (DCD-1L μM: 1); S. aureus USA300, Lugdunin μM 1: 0.98 (DCD-1L μM: 1); S. aureus USA300, Lugdunin μM 2: 0.68 (DCD-1L μM: 1); S. aureus USA300, Lugdunin μM 3: 0.07 (DCD-1L μM: 1); S. aureus USA300, Lugdunin μM 0: 1.37 (DCD-1L μM: 2); S. aureus USA300, Lugdunin μM 1: 0.60 (DCD-1L μM: 2); S. aureus USA300, Lugdunin μM 2: 0.42 (DCD-1L μM: 2); S. aureus USA300, Lugdunin μM 3: 0.02 (DCD-1L μM: 2) | (a) IL-37: S. aureus USA300, Lugdunin μM 0: 1.00 (IL-37 μM: 0); S. aureus USA300, Lugdunin μM 1: 1.08 (IL-37 μM: 0); S. aureus USA300, Lugdunin μM 2: 1.11 (IL-37 μM: 0); S. aureus USA300, Lugdunin μM 3: 0.97 (IL-37 μM: 0); S. aureus USA300, Lugdunin μM 0: 1.86 (IL-37 μM: 1); S. aureus USA300, Lugdunin μM 1: 1.27 (IL-37 μM: 1); S. aureus USA300, Lugdunin μM 2: 1.23 (IL-37 μM: 1); S. aureus USA300, Lugdunin μM 3: 1.90 (IL-37 μM: 1); S. aureus USA300, Lugdunin μM 0: 2.49 (IL-37 μM: 2); S. aureus USA300, Lugdunin μM 1: 1.28 (IL-37 μM: 2); S. aureus USA300, Lugdunin μM 2: 0.89 (IL-37 μM: 2); S. aureus USA300, Lugdunin μM 3: 0.38 (IL-37 μM: 2) DOUBTS OF THE COPYIST ABOUT THIS PICTURE: Panel a, third matrix: the row label reads IL-37, but it may be LL-37, as printed in panels b and c. / Panel a: the picture prints no measure for the matrix numbers, only the colour scale 'Growth – Killing, S. aureus USA300'. Each cell is a combination of Lugdunin (column, μM) with the peptide (row, μM). / Panel a: rows and columns at 0 μM are a single agent or the untreated control. […]

[1] = single peptide 0.4 µM, PBS + 0.1% TSB, 37 °C

Row | Substance | S. aureus USA300 CFU normalized to untreated control (1.00) [1] | S. aureus USA300 CFU normalized to untreated control (1.00) (single peptide 0.6 µM) | S. aureus USA300 CFU normalized to untreated control (1.00) (single peptide 0.8 µM) | S. aureus USA300 CFU normalized to untreated control (1.00) (single peptide 1 µM) | S. aureus USA300 CFU normalized to untreated control (1.00) (single peptide 2 µM) | antimicrobial activity on co-incubation with human AMPs (in words) (S. aureus USA300, text to Supp Figs 5, 6)
1 | IASKFLCTPGCAKTGSFNSYCC (also: bicyclic or more (positions not given here)) [Gallidermin, bacteriocin isolated from Staphylococcus gallinarum] | 0,84 | 0,91 | 0,74 | – | – | –
2 | ITSISLCTPGCKTGALMGCNMKTATCHCSIHVSK (not fully specified (bridges); also: lanthionine rings, places not given here) [Nisin, bacteriocin of Lactococcus lactis, purchased from Sigma] | 1,31 | 1,49 | 1,49 | – | – | –
3 | LLGDFFRKSKEKIGKEFKRIVQRIKDFLRNLVPRTES [LL-37, human cathelicidin AMP] | – | – | – | 1,86 | 2,49 | –
4 | Lugdunin | – | – | – | 1,08 | 1,11 | –
5 | MEAVKEKNELFDLDVKVNAKESNDSGAEPRIASKFLCTPGCAKTGSFNSYCC [Pro-Gallidermin, non-bactericidal pro-form of gallidermin] | 1,34 | 1,61 | 1,30 | – | – | did not lead to antimicrobial activity
6 | SSLLEKGLDGAKKAVGGLGKLGKDAVEDLESVGKGAVHDVKDVLDSV [DCD-1, dermcidin-derived human AMP of eccrine sweat glands] | – | – | – | 1,06 | 1,19 | –
7 | SSLLEKGLDGAKKAVGGLGKLGKDAVEDLESVGKGAVHDVKDVLDSVL [DCD-1L, dermcidin-derived human AMP of eccrine sweat glands] | – | – | – | 1,13 | – | –

Source: article PMC6588697, “Lugdunin amplifies innate immune responses in the skin in synergy with host- and microbiota-derived factors” (Nature Communications, 2019)
